Source: paper PMC7663531, “Synthesis, Molecular Docking Screening and Anti-Proliferative Potency Evaluation of Some New Imidazo[2,1-b]Thiazole Linked Thiadiazole Conjugates” (Molecules, 2020)

Tests used:
HepG2 cells = assay: Anti-proliferative assay in vitro (SRB) on hepatic cancer cell line HepG2; type: cell-based; conditions: Homo sapiens, 72 h exposure, tested from 100 to 0.1 µg/mL, Nd: no detectable activity in the used concentrations, DMSO 1%, read-out: HepG2 IC50 ± SD
Description: (§1) The results of anti-proliferative activity were calculated based on the IC50 (inhibitory concentration 50%), the concentration of a tested compound which inhibits 50% of the cells population. IC50 esteems were determined for each examination independently and mean qualities ± SD are introduced in Table 1. The movement of every subordinate at every fixation was tried in three-fold in a solitary test; which was rehashed 3–5 times. The aftereffects of the investigations on against proliferative action of tried mixes are summed up in Table 1
(§2) Cell lines: Hep-G2 (human hepatic disease) and BALB/3T3 (murine fibroblast) are being kept up in the Institute of Cancer, Cairo, Egypt. All malignant growth cell lines were obtained from American Type Culture Collection (Rockville, Maryland, USA) and kept up in the Institute of Cancer. HepG2 cells were refined in Eagle’s minimum essential medium (EMEM) and supplemented with 10% FBS; DMEM and RPMI1640 were choices for that function also. Suction included new culture medium each 2–3 days. HepG2 cell multiplying time was 48 h. BALB/3T3 cell line was refined in DMEM and enhanced with 2 mM L-glutamine, 10% fetal ox-like serum (GE Healthcare, Logan, UT, USA). To entry cells, cell monolayer with 1× PBS were flushed twice and pre-warmed (37 °C) 0.05% Trypsin-EDTA arrangement was added to cover the lower part of the jar; brooded for 5–7 min. As cells withdrew, the trypsin was killed by including 4× volume of complete development medium with 10% FBS and delicately suspended the cells by pipetting. To abstain from clustering, the phones were not upset by shaking the jar while sitting tight for separation. Split cells 1:4 at regular intervals or 1:8 like clockwork. Societies had been brooded at 37 °C in a humidified climate with 5% CO2.
(§3) All compounds were broken up in DMSO (stock arrangement 10 mg/mL) and consequently weakened in culture medium to arrive at the necessary fixations (going from 100 to 0.1 µg/mL).
(§4) 24 h before expansion of the tried exacerbates, the cells were plated in 96-well plates (Sarstedt, Germany) at thicknesses of 1 × 10^4 cells per well. The examination was performed after 72 h introduction to shifting centralizations of the tried mixes. The in vitro cytotoxic impact of all mixes was analyzed utilizing the SRB measure.
(§5) The subtleties of this strategy were depicted by Skehan et al.. The cells were joined to the lower part of plastic wells by fixing them with cold half TCA (trichloroacetic corrosive, Sigma-Aldrich Chemie GmbH, Steinheim, Germany) on the head of the way of life medium in each well. The plates were hatched at 4 °C for 1 h and afterward washed multiple times with faucet water. The cell material fixed with TCA was recolored with 0.4% sulphorhodamine B (SRB, Sigma-Aldrich Chemie GmbH, Steinheim, Germany) disintegrated in 1% acidic corrosive for 30 min. Unbound color was taken out by flushing (multiple times) in 1% acidic corrosive. The protein-bound color was removed with 10 mMunbufferedTris base for assurance of the optical thickness (λ = 540 nm) in Synergy H4 multi-mode microplate peruser (BioTek Instruments, Winooski, VT, USA).

[1] = test system: BALB/3T3 (murine fibroblast); assay: Anti-proliferative assay in vitro (SRB) on normal cell line BALB/3T3; type: cell-based; conditions: Mus musculus, 72 h exposure, tested from 100 to 0.1 µg/mL, Nd: no detectable activity in the used concentrations, DMSO 1%, read-out: BALAB/3T3 IC50 ± SD
Description: as §1, §2, §3, §4, §5

melting point | IC50 (HepG2 cells) | Compound | IC50 [1]
192 to 194 °C |  | CC(=O)c1nn(-c2ccc(Cl)cc2)c(=NN=C(C)c2sc3nc(-c4ccc(C)cc4)cn3c2C)s1 [Compound 6c, 1-(4-(4-Chlorophenyl)-5-((1-(3-methyl-6-(p-tolyl)imidazo[2,1-b]thiazol-2-yl)ethylidene) hydrazono)-4,5-dihydro-1,3,4-thiadiazol-2-yl)ethanone] | 
216 to 218 °C | 59.2 ± 9.27 mg/L | COc1ccc(-n2nc(C(C)=O)sc2=NN=C(C)c2sc3nc(-c4ccc(C)cc4)cn3c2C)cc1 [Compound 6b, 1-(4-(4-Methoxyphenyl)-5-((1-(3-methyl-6-(p-tolyl)imidazo[2,1-b]thiazol-2-yl)ethylidene) hydrazono)-4,5-dihydro-1,3,4-thiadiazol-2-yl)ethanone] | 
273 to 275 °C |  | CC(=NN=c1sc(-c2ccccc2)nn1-c1ccccc1)c1sc2nc(-c3ccc(C)cc3)cn2c1C [Compound 6i, 2-(1-((3,5-Diphenyl-1,3,4-thiadiazol-2(3H)-ylidene)hydrazono)ethyl)-3-methyl-6-(p-tolyl) imidazo[2,1-b]thiazole] | 
209 to 211 °C | 33.2 ± 8.25 mg/L | CC(=NN=c1sc(C(=O)Nc2ccccc2)nn1-c1ccccc1)c1sc2nc(-c3ccc(C)cc3)cn2c1C [Compound 6g, 5-((1-(3-Methyl-6-(p-tolyl)imidazo[2,1-b]thiazol-2-yl)ethylidene)hydrazono)-N,4-diphenyl-4,5-dihydro-1,3,4-thiadiazole-2-carboxamide] | 76.7 ± 4.14 mg/L
241 to 243 °C |  | CC(=NN=c1sc(C(=O)Nc2ccccc2)nn1-c1ccc([N+](=O)[O-])cc1)c1sc2nc(-c3ccc(C)cc3)cn2c1C [Compound 6h, 5-((1-(3-Methyl-6-(p-tolyl)imidazo[2,1-b]thiazol-2-yl)ethylidene)hydrazono)-4-(4-nitrophenyl)-N-phenyl-4,5-dihydro-1,3,4-thiadiazole-2-carboxamide] | 
117 to 119 °C |  | CCOC(=O)c1nn(-c2ccc(C)cc2)c(=NN=C(C)c2sc3nc(-c4ccc(C)cc4)cn3c2C)s1 [Compound 6e, Ethyl 5-((1-(3-methyl-6-(p-tolyl)imidazo[2,1-b]thiazol-2-yl)ethylidene)hydrazono)-4-(p-tolyl)-4,5-dihydro-1,3,4-thiadiazole-2-carboxylate] | 
235 to 237 °C | 41.1 ± 8.32 mg/L | CCOC(=O)c1nn(-c2ccccc2)c(=NN=C(C)c2sc3nc(-c4ccc(C)cc4)cn3c2C)s1 [Compound 6d, Ethyl 5-((1-(3-methyl-6-(p-tolyl)imidazo[2,1-b]thiazol-2-yl)ethylidene)hydrazono)-4-phenyl-4,5-dihydro-1,3,4-thiadiazole-2-carboxylate] | 
220 to 222 °C | 63.3 ± 12.8 mg/L | CC(=O)c1nn(-c2ccc(C)cc2)c(=NN=C(C)c2sc3nc(-c4ccc(C)cc4)cn3c2C)s1 [Compound 6a, 1-(5-((1-(3-Methyl-6-(p-tolyl)imidazo[2,1-b]thiazol-2-yl)ethylidene)hydrazono)-4-(p-tolyl)-4,5-dihydro-1,3,4-thiadiazol-2-yl)ethanone] | 25.1 ± 12 mg/L
156 to 158 °C | 57.5 ± 6.61 mg/L | CCOC(=O)c1nn(-c2ccc(Br)cc2)c(=NN=C(C)c2sc3nc(-c4ccc(C)cc4)cn3c2C)s1 [Compound 6f, Ethyl 4-(4-bromophenyl)-5-((1-(3-methyl-6-(p-tolyl)imidazo[2,1-b]thiazol-2-yl)ethylidene) hydrazono)-4,5-dihydro-1,3,4-thiadiazole-2-carboxylate] | 

Continued, compound first:

Compound | melting point | IC50 (HepG2 cells) | IC50 [1]
CC(=O)c1nn(-c2cccc(-n3nc(C(C)=O)s/c3=N\N=C(/C)c3sc4nc(-c5ccc(C)cc5)cn4c3C)c2)/c(=N/N=C(\C)c2sc3nc(-c4ccc(C)cc4)cn3c2C)s1 [Compound 11, 1,1’-(4,4’-(1,3-Phenylene)bis(5-((1-(3-methyl-6-(p-tolyl)imidazo[2,1-b]thiazol-2-yl)ethylidene)hydrazono)-4,5-dihydro-1,3,4-thiadiazole-4,2-diyl))diethanone] | 292 to 294 °C |  | 
COc1cccc2c1C(=O)c1c(O)c3c(c(O)c1C2=O)C[C@@](O)(C(=O)CO)C[C@@H]3O[C@H]1C[C@H](N)[C@H](O)[C@H](C)O1 [Doxorubicin, reference compound] |  | 3.56 ± 0.46 mg/L | 3.21 ± 0.32 mg/L
CSC(=S)N/N=C(\C)c1sc2nc(-c3ccc(C)cc3)cn2c1C [Compound 3, methyl 2-(1-(3-methyl-6-(p-tolyl)imidazo[2,1-b]thiazol-2-yl)ethylidene) hydrazinecarbodithioate] | 182 to 184 °C |  | 
CC(=O)c1nn(-c2ccc(S(=O)(=O)c3ccc(-n4nc(C(C)=O)s/c4=N\N=C(/C)c4sc5nc(-c6ccc(C)cc6)cn5c4C)cc3)cc2)/c(=N/N=C(\C)c2sc3nc(-c4ccc(C)cc4)cn3c2C)s1 [Compound 12, 1,1’-(4,4’-(Sulfonylbis(4,1-phenylene))bis(5-((1-(3-methyl-6-(p-tolyl)imidazo[2,1-b]thiazol-2-yl)ethylidene)hydrazono)-4,5-dihydro-1,3,4-thiadiazole-4,2-diyl))diethanone] | > 300 °C | 12.7 ± 1.36 mg/L | 8.34 ± 1.81 mg/L
CC(=NN=c1sc(-c2ccccc2)nn1-c1cccc(-n2nc(-c3ccccc3)sc2=NN=C(C)c2sc3nc(-c4ccc(C)cc4)cn3c2C)c1)c1sc2nc(-c3ccc(C)cc3)cn2c1C [Compound 10, 1,3-Bis(2-((1-(3-methyl-6-(p-tolyl)imidazo[2,1-b]thiazol-2-yl)ethylidene)hydrazono)-5-phenyl-1,3,4-thiadiazol-3(2H)-yl)benzene] | > 300 °C | 23.5 ± 4.48 mg/L | 26.2 ± 3.21 mg/L
